Results: PubChem BioAssay AID1745844 (Carcinogenic Potency Database (CPDB), 2022)
Values joined by “and” are separate entries in the source; they are usually repeats but may differ in a detail not shown here. Equal entries are not always repeated. Active and inactive are the calls of the source. How the calls were made is not given here.

Tested on: rodent lifetime carcinogenesis bioassay, tumor incidence TD50
Assay: chronic cancer bioassays in animals – CPDB, compiled studies (AID 1745844)

## CC/C(=C(/CC)c1ccc(O)cc1)c1ccc(O)cc1
mouse, strain (C57BL/6 x BALB/c)F1, females, in feed, site: cervix, lesion: squamous-cell carcinoma, dosed 148 weeks, study length 161 weeks
  TD50: 1.98 mg/kg/day
mouse, strain (C57BL/6 x BALB/c)F1, females, in feed, site: mammary gland, lesion: adenocarcinoma, type B, dosed 148 weeks, study length 161 weeks
  carcinogen call: positive
mouse, strain (C57BL/6 x BALB/c)F1, females, in feed, site: pituitary gland, lesion: adenocarcinoma, dosed 148 weeks, study length 161 weeks
  TD50: 2.01 mg/kg/day
mouse, strain (C57BL/6 x BALB/c)F1, females, in feed, site: pituitary gland, lesion: adenoma, dosed 148 weeks, study length 161 weeks
  TD50: 0.0387 mg/kg/day
mouse, strain (C57BL/6 x BALB/c)F1, males, in feed, site: pituitary gland, lesion: adenoma, dosed 150 weeks, study length 169 weeks
  TD50: 0.0722 mg/kg/day
mouse, strain (C57BL/6 x BALB/c)F1, males, in feed, site: testis, lesion: interstitial-cell tumor, dosed 150 weeks, study length 169 weeks
  TD50: 0.0408 mg/kg/day
mouse, strain BALB/cStCrlfC3Hf/Nctr, females, in feed, site: cervix, lesion: adenoacanthoma, dosed 132 weeks, study length 133 weeks
  TD50: 1.28 mg/kg/day
mouse, strain BALB/cStCrlfC3Hf/Nctr, females, in feed, site: cervix, lesion: squamous-cell carcinoma, dosed 132 weeks, study length 133 weeks
  TD50: 0.311 mg/kg/day
mouse, strain BALB/cStCrlfC3Hf/Nctr, females, in feed, site: mammary gland, lesion: adenoacanthoma, dosed 132 weeks, study length 133 weeks
  TD50: 1.88 mg/kg/day
mouse, strain BALB/cStCrlfC3Hf/Nctr, females, in feed, site: mammary gland, lesion: adenocarcinoma, type B, dosed 132 weeks, study length 133 weeks
  TD50: 0.476 mg/kg/day
mouse, strain BALB/cStCrlfC3Hf/Nctr, females, in feed, site: ovary, lesion: granulosa-cell tumor, dosed 132 weeks, study length 133 weeks
  TD50: 0.166 mg/kg/day
mouse, strain BALB/cStCrlfC3Hf/Nctr, females, in feed, site: pituitary gland, lesion: adenocarcinoma, dosed 132 weeks, study length 133 weeks
  TD50: 5.1 mg/kg/day
mouse, strain BALB/cStCrlfC3Hf/Nctr, females, in feed, site: pituitary gland, lesion: adenoma, dosed 132 weeks, study length 133 weeks
  TD50: 0.2 mg/kg/day
mouse, strain BALB/cStCrlfC3Hf/Nctr, females, in feed, site: uterus, lesion: adenocarcinoma, dosed 132 weeks, study length 133 weeks
  TD50: 5.32 mg/kg/day
mouse, strain BALB/cStCrlfC3Hf/Nctr, females, in feed, site: vagina, lesion: squamous-cell carcinoma, dosed 132 weeks, study length 133 weeks
  TD50: 1.31 mg/kg/day
mouse, strain BALB/cStCrlfC3Hf/Nctr, males, in feed, site: pituitary gland, lesion: adenoma, dosed 121 weeks, study length 126 weeks
  TD50: 0.171 mg/kg/day
mouse, strain BALB/cStCrlfC3Hf/Nctr, males, in feed, site: testis, lesion: interstitial-cell tumor, dosed 121 weeks, study length 126 weeks
  TD50: 0.0215 mg/kg/day
mouse, strain C3H (MTV+), females, in feed, site: mammary gland, lesion: adenocarcinoma, dosed 104 weeks, study length 104 weeks
  TD50: 0.026 mg/kg/day
mouse, strain C3H (MTV+), females, in feed, site: mammary gland, lesion: carcinoma, dosed 85 weeks, study length 85 weeks
  TD50: 0.0292 mg/kg/day
mouse, strain C3H/AnCum, males, in feed, site: mammary gland, lesion: carcinoma, dosed 104 weeks, study length 104 weeks
  TD50: 0.0359 mg/kg/day and 0.0421 mg/kg/day and 0.0789 mg/kg/day
mouse, strain C3H/HeJ (MTV+), females, in feed, site: mammary gland, lesion: adenocarcinoma, dosed 52 weeks, study length 52 weeks
  TD50: 0.0825 mg/kg/day
mouse, strain C3H/HeJ (MTV+), females, in feed, site: mammary gland, lesion: adenocarcinoma, dosed 104 weeks, study length 104 weeks
  TD50: 14.2 mg/kg/day
mouse, strain C3H/HeJ (MTV+), females, in feed, site: ovary, lesion: tubular adenoma, dosed 78 weeks, study length 78 weeks
  TD50: 0.0222 mg/kg/day
mouse, strain C3H/HeN-MTV-/Nctr (MTV-), females, in feed, site: all sites, lesion: mesothelioma, dosed 112 weeks, study length 112 weeks
  TD50: 0.928 mg/kg/day
mouse, strain C3H/HeN-MTV-/Nctr (MTV-), females, in feed, site: all sites, lesion: mesothelioma, dosed 123 weeks, study length 123 weeks
  TD50: 0.487 mg/kg/day
mouse, strain C3H/HeN-MTV-/Nctr (MTV-), females, in feed, site: all sites, lesion: mesothelioma, dosed 125 weeks, study length 125 weeks
  TD50: 0.52 mg/kg/day
mouse, strain C3H/HeN-MTV-/Nctr (MTV-), females, in feed, site: cervix uteri, lesion: adenocarcinoma, dosed 112 weeks, study length 112 weeks
  TD50: 2.47 mg/kg/day
mouse, strain C3H/HeN-MTV-/Nctr (MTV-), females, in feed, site: cervix uteri, lesion: adenocarcinoma, dosed 123 weeks, study length 123 weeks
  TD50: 1.66 mg/kg/day
mouse, strain C3H/HeN-MTV-/Nctr (MTV-), females, in feed, site: cervix uteri, lesion: adenocarcinoma, dosed 125 weeks, study length 125 weeks
  TD50: 1.17 mg/kg/day
mouse, strain C3H/HeN-MTV-/Nctr (MTV-), females, in feed, site: mammary gland, lesion: adenocarcinoma, type A, dosed 107 weeks, study length 107 weeks
  TD50: 2.63 mg/kg/day
mouse, strain C3H/HeN-MTV-/Nctr (MTV-), females, in feed, site: mammary gland, lesion: adenocarcinoma, type A, dosed 123 weeks, study length 123 weeks
  TD50: 4.39 mg/kg/day
mouse, strain C3H/HeN-MTV-/Nctr (MTV-), females, in feed, site: mammary gland, lesion: adenocarcinoma, type A, dosed 125 weeks, study length 125 weeks
  TD50: 2.1 mg/kg/day
mouse, strain C3H/HeN-MTV-/Nctr (MTV-), females, in feed, site: mammary gland, lesion: adenocarcinoma, type B, dosed 107 weeks, study length 107 weeks
  TD50: 0.0302 mg/kg/day
mouse, strain C3H/HeN-MTV-/Nctr (MTV-), females, in feed, site: mammary gland, lesion: adenocarcinoma, type B, dosed 112 weeks, study length 112 weeks
  TD50: 0.0434 mg/kg/day
mouse, strain C3H/HeN-MTV-/Nctr (MTV-), females, in feed, site: mammary gland, lesion: adenocarcinoma, type B, dosed 123 weeks, study length 123 weeks
  TD50: 0.118 mg/kg/day
mouse, strain C3H/HeN-MTV-/Nctr (MTV-), females, in feed, site: mammary gland, lesion: adenocarcinoma, type B, dosed 125 weeks, study length 125 weeks
  TD50: 0.0956 mg/kg/day
mouse, strain C3H/HeN-MTV-/Nctr (MTV-), females, in feed, site: mammary gland, lesion: several types, types named in the paper, dosed 107 weeks, study length 107 weeks
  TD50: 0.0247 mg/kg/day
mouse, strain C3H/HeN-MTV-/Nctr (MTV-), females, in feed, site: mammary gland, lesion: several types, types named in the paper, dosed 112 weeks, study length 112 weeks
  TD50: 0.0427 mg/kg/day
mouse, strain C3H/HeN-MTV-/Nctr (MTV-), females, in feed, site: mammary gland, lesion: several types, types named in the paper, dosed 123 weeks, study length 123 weeks
  TD50: 0.115 mg/kg/day
mouse, strain C3H/HeN-MTV-/Nctr (MTV-), females, in feed, site: mammary gland, lesion: several types, types named in the paper, dosed 125 weeks, study length 125 weeks
  TD50: 0.0872 mg/kg/day
mouse, strain C3H/HeN-MTV-/Nctr (MTV-), females, in feed, site: uterus, lesion: endometrial adenocarcinoma, dosed 112 weeks, study length 112 weeks
  TD50: 2.05 mg/kg/day
mouse, strain C3H/HeN-MTV-/Nctr (MTV-), females, in feed, site: uterus, lesion: endometrial adenocarcinoma, dosed 123 weeks, study length 123 weeks
  TD50: 1.87 mg/kg/day
mouse, strain C3H/HeN-MTV-/Nctr (MTV-), females, in feed, site: uterus, lesion: endometrial adenocarcinoma, dosed 125 weeks, study length 125 weeks
  TD50: 1.71 mg/kg/day
mouse, strain C3HeB/FeJ, females, in feed, site: mammary gland, lesion: adenocarcinoma, dosed 78 weeks, study length 78 weeks
  TD50: 0.295 mg/kg/day
mouse, strain C3HeB/FeJ, females, in feed, site: ovary, lesion: tubular adenoma, dosed 78 weeks, study length 78 weeks
  TD50: 0.329 mg/kg/day
mouse, strain C3HeB/FeJ, females, in feed, site: ovary, lesion: tubular adenoma, dosed 104 weeks, study length 104 weeks
  TD50: 0.597 mg/kg/day
mouse, strain C57BL/6, females, in feed, site: pituitary gland, lesion: adenoma, dosed 118 weeks, study length 143 weeks
  TD50: 0.0259 mg/kg/day
mouse, strain C57BL/6, females, in feed, site: thyroid gland, lesion: follicular-cell tumor, dosed 118 weeks, study length 143 weeks
  carcinogen call: positive
mouse, strain C57BL/6, males, in feed, site: pituitary gland, lesion: adenocarcinoma, dosed 125 weeks, study length 153 weeks
  TD50: 1.42 mg/kg/day
mouse, strain C57BL/6, males, in feed, site: pituitary gland, lesion: adenoma, dosed 125 weeks, study length 153 weeks
  TD50: 0.0176 mg/kg/day
mouse, strain C57BL/6, males, in feed, site: testis, lesion: interstitial-cell tumor, dosed 125 weeks, study length 153 weeks
  TD50: 0.257 mg/kg/day
mouse, strain C57BL/6, males, in feed, site: thyroid gland, lesion: follicular-cell tumor, dosed 125 weeks, study length 153 weeks
  TD50: 0.05 mg/kg/day
mouse, strain Monohybrid cross offspring of B6CF1 (C57BL/6 x BALB/c), females, in feed, site: cervix, lesion: squamous-cell carcinoma, dosed 144 weeks, study length 153 weeks
  TD50: 1.03 mg/kg/day
mouse, strain Monohybrid cross offspring of B6CF1 (C57BL/6 x BALB/c), females, in feed, site: ovary, lesion: granulosa-cell tumor, dosed 144 weeks, study length 153 weeks
  TD50: 1.74 mg/kg/day
mouse, strain Monohybrid cross offspring of B6CF1 (C57BL/6 x BALB/c), females, in feed, site: pituitary gland, lesion: adenocarcinoma, dosed 144 weeks, study length 153 weeks
  TD50: 17 mg/kg/day
mouse, strain Monohybrid cross offspring of B6CF1 (C57BL/6 x BALB/c), females, in feed, site: pituitary gland, lesion: adenoma, dosed 144 weeks, study length 153 weeks
  TD50: 0.0456 mg/kg/day
mouse, strain Monohybrid cross offspring of B6CF1 (C57BL/6 x BALB/c), females, in feed, site: thyroid gland, lesion: follicular-cell adenoma, dosed 144 weeks, study length 153 weeks
  TD50: 0.186 mg/kg/day
mouse, strain Monohybrid cross offspring of B6CF1 (C57BL/6 x BALB/c), females, in feed, site: uterus, lesion: mesothelioma, dosed 144 weeks, study length 153 weeks
  TD50: 1.72 mg/kg/day
mouse, strain Monohybrid cross offspring of B6CF1 (C57BL/6 x BALB/c), males, in feed, site: pituitary gland, lesion: adenocarcinoma, dosed 147 weeks, study length 158 weeks
  TD50: 4.36 mg/kg/day
mouse, strain Monohybrid cross offspring of B6CF1 (C57BL/6 x BALB/c), males, in feed, site: pituitary gland, lesion: adenoma, dosed 147 weeks, study length 158 weeks
  TD50: 0.0794 mg/kg/day
mouse, strain Monohybrid cross offspring of B6CF1 (C57BL/6 x BALB/c), males, in feed, site: testis, lesion: interstitial-cell tumor, dosed 147 weeks, study length 158 weeks
  TD50: 0.0661 mg/kg/day
rat, strain Charles River CD (Sprague-Dawley), females, in feed, site: liver, lesion: hepatoma, dosed 91 weeks, study length 104 weeks
  TD50: 0.13 mg/kg/day (inactive)
rat, strain Charles River CD (Sprague-Dawley), males, in feed, site: adrenal gland, lesion: cortical adenoma, dosed 66 weeks, study length 66 weeks
  TD50: 0.39 mg/kg/day
rat, strain Charles River CD (Sprague-Dawley), males, in feed, site: liver, lesion: carcinoma, dosed 66 weeks, study length 66 weeks
  TD50: 1.21 mg/kg/day
rat, strain Charles River CD (Sprague-Dawley), males, in feed, site: liver, lesion: nodular hyperplasia, dosed 66 weeks, study length 66 weeks
  TD50: 0.39 mg/kg/day
rat, strain Charles River CD (Sprague-Dawley), males, in feed, site: liver, lesion: one or several types, types not named, dosed 91 weeks, study length 104 weeks
  carcinogen call: negative (inactive)
rat, strain Charles River CD (Sprague-Dawley), males, in feed, site: pituitary gland, lesion: chromophobe adenoma, dosed 66 weeks, study length 66 weeks
  TD50: 0.114 mg/kg/day
rat, strain Sprague-Dawley, females, by gavage, site: liver, lesion: hepatocellular adenoma, dosed 52 weeks, study length 52 weeks
  TD50: 16.3 mg/kg/day
rat, strain Sprague-Dawley, females, by gavage, site: liver, lesion: hepatocellular carcinoma, dosed 52 weeks, study length 52 weeks
  TD50: 4.8 mg/kg/day
rat, strain Sprague-Dawley, females, by gavage, site: pituitary gland, lesion: adenoma, dosed 52 weeks, study length 52 weeks
  TD50: 7.68 mg/kg/day

## CC[C@H]1OC(=O)[C@H](C)[C@@H](O[C@H]2C[C@@](C)(OC)[C@@H](O)[C@H](C)O2)[C@H](C)[C@@H](O[C@@H]2O[C@H](C)C[C@H](N(C)C)[C@H]2O)[C@](C)(O)C[C@@H](C)C(=O)[C@H](C)[C@@H](O)[C@]1(C)O
mouse, strain B6C3F1, females, in feed, site: any site (literature study), lesion: several types, types named in the paper, dosed 103 weeks, study length 104 weeks
  carcinogen call: negative (inactive)
mouse, strain B6C3F1, males, in feed, site: any site (literature study), lesion: several types, types named in the paper, dosed 103 weeks, study length 104 weeks
  carcinogen call: negative (inactive)
rat, strain Fischer 344, females, in feed, site: any site (literature study), lesion: several types, types named in the paper, dosed 103 weeks, study length 104 weeks
  carcinogen call: negative (inactive)
rat, strain Fischer 344, females, in feed, site: liver, lesion: hepatocellular adenoma + hepatocellular carcinoma + neoplastic nodule, dosed 103 weeks, study length 104 weeks
  TD50: 5850 mg/kg/day
rat, strain Fischer 344, males, in feed, site: any site (literature study), lesion: several types, types named in the paper, dosed 103 weeks, study length 104 weeks
  TD50: 2020 mg/kg/day (inactive)
rat, strain Fischer 344, males, in feed, site: liver, lesion: hepatocellular adenoma + hepatocellular carcinoma + neoplastic nodule, dosed 103 weeks, study length 104 weeks
  TD50: 3950 mg/kg/day
